Experimental data taken from patent US20100087768A1, “TRANSDERMAL DRUG DELIVERY SYSTEM FOR LIQUID ACTIVE INGREDIENT” (priority 2008, published 2010).
Where “and” joins values, the source holds several entries; their conditions need not be identical. Identical values can stand only once. Like-named read-outs stand apart in the source and are kept apart here.

How the values were obtained:
[1] = Shear adhesion / holding power (PSTC-7) of plain adhesives and transdermal devices; assay type: physicochemical
Protocol: Holding power (shear adhesion): The ability of a tape to resist the static forces applied in the same plane as the backing. Usually expressed in a time required for a given weight per unit area to cause a given amount of tape to come loose from a vertical panel.
Throughout this specification, including the claims, the adhesive properties of shear adhesion and peel adhesion are measured employing the test methods adopted by the PSTC (Pressure Sensitive Tape Council) for Peel Adhesion (PSTC-1 Peel Adhesion of Single Coated Pressure Sensitive Tapes at 180° Angle) and Shear Adhesion (PSTC-7 Holding Power of Pressure Sensitive Tapes). The unit for peel adhesion is newtons/inch, and the unit for holding power (shear adhesion) is minutes. The test of holding power is performed under a load of 4 lbs/in^2 (28 kPa) and at 72° F. (22° C.).
Adhesive properties were measured as described above. The plain adhesive values given are those of the dry adhesive polymer composition without added components.

[2] = Loss of selegiline during manufacture (after drying), HPLC; assay type: physicochemical; details: up to 15%
Protocol: Lots with DT 87-2353 as adhesive, selegiline and increasing amounts of squalene (SQ) and triethylcitrate (TEC) were manufactured as described in “Description of the manufacturing process” above and the amount of selegiline present after drying was measured.
Selegiline content was analysed by HPLC using a suitable technique

[3] = General appearance of patches with non-volatile coadjuvants (visual and tactile inspection); assay type: physicochemical; details: selegiline patches in DT 87-2353
shaved skin = assay: Evaluation of dermal irritation in rabbits (Example 3); assay type: in vivo, rabbits (New Zealand Albino); set-up: key to Score for Skin Erythema 1 h / Score for Skin Erythema 2 h / Score for Skin Erythema 4 h / Score for Skin Erythema 6 h / Score for Skin Erythema 8 h / Score for Skin Erythema 24 h: 0: No redness (erythema).; 1: Barely perceptible redness.; 2: Well defined redness.; 3: Severe Erythema (beet redness) to slight eschar formation (injuries in depth)
Protocol: Dermal irritation was tested using transdermal delivery devices manufactured as described in “Description of the manufacturing process” above with acrylic adhesives with different functionality and 15% of selegiline, all of them with shear value of more than 1.5 hours and less than 15 hours for the plain adhesive and without crosslinker agents (see Table 3). Each formulation was tested on 6 rabbits, with evaluations at 1, 2, 4, 6, 8 and 24 hrs. The degree of adhesion and glue residue was also evaluated with skin reactions on an open-label 1-day-study. Rabbits belonging to the New Zealand Albino strain were used as animal model. According protocol, and after 14 days of acclimatization, the fur of back of 6 male rabbits was thoroughly shaved. Twenty four hours later one patch of each formulation of 10.6 cm^2 was glued in each rabbit to the shaved skin, according to a randomized schedule.
Pure selegiline (25 μl) was used as control covered by Transpore tape (from 3M).
The irritation observed was classified according to the following scoring system: • Scale used for scoring erythema: • 0: No redness (erythema). • 1: Barely perceptible redness. • 2: Well defined redness. • 3: Severe Erythema (beet redness) to slight eschar formation (injuries in depth).
Reactions were scored as if they were covering the entire skin area treated (maximum score).
The Dermal Irritation Index (DII) was calculated as the average of the individual data at each evaluation time.
The dermal irritation indexes obtained were interpreted following ISO/WD 10993-10: […]

[4] = 1% selegiline in the coadjuvant, seven days at 40° C.
[5] = 1% selegiline in the coadjuvant, seven days at 40° C., control pure selegiline

CCN(C)C(=O)Oc1cccc([C@H](C)N(C)C)c1 [Rivastigmine, rivastigmine]
Effect of the drug on cohesiveness of the adhesives (measured by the shear test) [1]: reduces the cohesiveness in all the adhesives

CCOC(=O)CC(O)(CC(=O)OCC)C(=O)OCC [TEC, triethylcitrate]
Effect of coadjuvant on selegiline loss during drying, in words [2]: diminishes the amount of active drug loss during drying in a concentration dependent manner | Impurity rrt: 1.56 [4]: 0.42% | Impurity rrt: 2.09 [4]: 0.98% | Selegiline base (chromatographic purity) [5]: 98.58% | Amount up to which the coadjuvant is suitable [3]: up to 15%

C#CCN(C)[C@H](C)Cc1ccccc1 [pure selegiline, selegiline]
Impurity (any secondary peak): ≦0.05% | Selegiline base (chromatographic purity): 99.98% | Score for Skin Erythema 1 h (shaved skin; individual rabbits 1-6, 10.6 cm^2 patch, 1 h): 0 | Score for Skin Erythema 2 h (shaved skin; individual rabbits 1-6, 2 h): 0 (5×) and 1 | Score for Skin Erythema 4 h (shaved skin; individual rabbits 1-6, 4 h): 0 (5×) and 1 | Score for Skin Erythema 6 h (shaved skin; individual rabbits 1-6, 6 h): 0 (3×) and 1 (3×) | Score for Skin Erythema 8 h (shaved skin; individual rabbits 1-6, 8 h): 1 | Score for Skin Erythema 24 h (shaved skin; individual rabbits 1-6, 24 h): 1 (5×) and 0 | DII (Dermal Irritation Index) (shaved skin; individual rabbits 1-6, average over evaluation times): 0.3 (4×) and 0.5 and 0.8 | Erythema Score 1 h (shaved skin; mean of 6 rabbits, 1 h): 0.0 | Erythema Score 2 h (shaved skin; mean of 6 rabbits, 2 h): 0.2 | Erythema Score 4 h (shaved skin; mean of 6 rabbits, 4 h): 0.2 | Erythema Score 6 h (shaved skin; mean of 6 rabbits, 6 h): 0.5 | Erythema Score 8 h (shaved skin; mean of 6 rabbits, 8 h): 1.0 | Erythema Score 24 h (shaved skin; mean of 6 rabbits, 24 h): 0.8 | DII (Dermal Irritation Index), Erythema Score line (shaved skin; overall, 6 rabbits, all times): 0.4 | Effect of the drug on cohesiveness of the adhesives (measured by the shear test) [1]: reduces the cohesiveness in all the adhesives

CC(C)=CCC/C(C)=C/CC/C(C)=C/CC/C=C(\C)CC/C=C(\C)CCC=C(C)C [squalene]
Effect of coadjuvant on selegiline loss during drying, in words [2]: diminishes the amount of active drug loss during drying in a concentration dependent manner | Impurity rrt: 2.04 [4]: 0.07% | Selegiline base (chromatographic purity) [5]: 99.89% | Amount up to which the coadjuvant is suitable [3]: up to 15%
